Assay results reported in patent US8017612B2, “Piperazine compound and use thereof as a HCV polymerase inhibitor” (priority 2006, dated 2011).
Structures can show the parent of a compound that is named as a salt.

Legend:
[1] = target: T1, HCV polymerase (NS5B) type 1b (Hepatitis C virus genotype 1b, UniProt P26663); experiment: Assay of enzyme (HCV polymerase) inhibitory activity, type 1b enzyme; format: biochemical, HCV BK strain (type 1b); settings: HCV polymerase inhibitory activity (IC50), 1b, type 1b enzyme 0.5 μg/ml, 25° C., 60 min
T1 construct: a region encoding NS5B (J Virol 1991 March, 65(3), 1105-13, 544 amino acids after deletion of 47 amino acids on the C-terminal); 6xHis (C); made in house; host or cells: Escherichia coli
Method in brief: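 IC50 derived from [3H]UTP incorporation into TCA-insoluble RNA, compared with and without test compound. Reaction (25 °C, 60 min, Tris pH 7.5, 5 mM MgCl2): E. coli-expressed 1b NS5B Δ47 with His tag at 0.5 μg/ml, 5 μg/ml run-off substrate RNA, ATP/GTP/CTP 50 μM, UTP 2 μM.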

[2] = target: T2, HCV polymerase (NS5B) type 1a (Hepatitis C virus genotype 1a, UniProt P26664); experiment: Assay of enzyme (HCV polymerase) inhibitory activity, type 1a enzyme; format: biochemical, HCV type 1a (cloned from the blood of patients); settings: HCV polymerase inhibitory activity (IC50), 1a, type 1a enzyme 1.5 μg/ml, 25° C., 60 min
T2 construct: made in house; host or cells: Escherichia coli (by the 'similar method' of the 1b enzyme)
Method in brief: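 Reactions ran 60 min at 25° C in 20 mM Tris-HCl pH 7.5, 5 mM MgCl2, 50 mM NaCl, holding genotype 1a NS5B (1.5 μg/ml, Δ47 C-terminus, 6His), substrate RNA 5 μg/ml, UTP 2 μM with tritiated UTP and other NTPs 50 μM. IC50 derived from incorporated radiolabel in filter-trapped RNA relative to uninhibited reaction.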

| SMILES | IC50 [1] [nM] | IC50 [2] [nM] |
| --- | --- | --- |
| Cc1nc(N2CCN(S(=O)(=O)c3ccc(OC(F)(F)F)cc3)[C@@H](C(=O)NCc3ccc(N4CCCC4)cc3)C2)sc1C(=O)O [Example 416, 4-methyl-2-[(R)-3-(4-pyrrolidin-1-yl-benzylcarbamoyl)-4-(4-trifluoromethoxy-benzenesulfonyl)-piperazin-1-yl]-thiazole-5-carboxylic acid] | < 100 | 100 to 1000 |
| CCCc1ccc(CNC(=O)[C@H]2CN(c3ccc(C(=O)O)nn3)CCN2S(=O)(=O)c2ccc(OC(F)(F)F)cc2)cc1 [Example 417, 6-[(R)-3-(4-propyl-benzylcarbamoyl)-4-(4-trifluoromethoxy-benzenesulfonyl)-piperazin-1-yl]-pyridazine-3-carboxylic acid] | < 100 | < 100 |
| Cc1nc(N2CCN(S(=O)(=O)c3ccc(OC(F)(F)F)cc3)[C@@H](C(=O)NCCc3ccccc3)C2)sc1C(=O)O [Example 418, 4-methyl-2-[(R)-3-phenethylcarbamoyl-4-(4-trifluoromethoxy-benzenesulfonyl)-piperazin-1-yl]-thiazole-5-carboxylic acid] | > 1000 | > 1000 |
| CC(=O)N1CCN(S(=O)(=O)c2ccc(Br)cc2F)[C@@H](C(=O)NCc2ccc(C(C)C)cc2)C1 [Example 419, (R)-4-acetyl-1-(4-bromo-2-fluoro-benzenesulfonyl)-piperazine-2-carboxylic acid 4-isopropyl-benzylamide] | 100 to 1000 | 100 to 1000 |
| COC(=O)c1nc(Cl)c(N2CCN(S(=O)(=O)c3ccc(C(F)(F)F)cc3)[C@@H](C(=O)NCc3ccc(C(C)C)cc3)C2)nc1N [Example 420, (R)-6′-amino-3′-chloro-3-(4-isopropyl-benzylcarbamoyl)-4-(4-trifluoromethyl-benzenesulfonyl)-3,4,5,6-tetrahydro-2H-[1,2′]bipyrazinyl-5′-carboxylic acid methyl ester] | > 1000 | > 1000 |
| COC(=O)c1nc(Cl)c(N2CCN(S(=O)(=O)c3ccc(C(F)(F)F)cc3)[C@@H](C(=O)NCc3ccc(C(C)C)cc3)C2)nc1Br [Example 421, (R)-6′-bromo-3′-chloro-3-(4-isopropyl-benzylcarbamoyl)-4-(4-trifluoromethyl-benzenesulfonyl)-3,4,5,6-tetrahydro-2H-[1,2′]bipyrazinyl-5′-carboxylic acid methyl ester] | > 1000 | > 1000 |
| Cc1nc(N2CCN(S(=O)(=O)c3ccc(C(F)(F)F)cc3)[C@@H](C(=O)NCc3ccc(C(C)C)cc3)C2)c(C)nc1C(=O)O [Example 422, (R)-3-(4-isopropyl-benzylcarbamoyl)-3′,6′-dimethyl-4-(4-trifluoromethyl-benzenesulfonyl)-3,4,5,6-tetrahydro-2H-[1,2′]bipyrazinyl-5′-carboxylic acid] | > 1000 | > 1000 |
| COC(=O)c1ncc(N2CCN(S(=O)(=O)c3ccc(C(F)(F)F)cc3)[C@@H](C(=O)NCc3ccc(C(C)C)cc3)C2)nc1N [Example 423, (R)-6′-amino-3-(4-isopropyl-benzylcarbamoyl)-4-(4-trifluoromethyl-benzenesulfonyl)-3,4,5,6-tetrahydro-2H-[1,2′]bipyrazinyl-5′-carboxylic acid methyl ester] | < 100 | < 100 |
| CCN(C)c1ccc(CNC(=O)[C@H]2CN(c3nc(C)c(C(=O)O)s3)CCN2S(=O)(=O)c2ccc(OC(F)(F)F)cc2)cc1 [Example 424, 2-[(R)-3-[4-(ethyl-methyl-amino)-benzylcarbamoyl]-4-(4-trifluoromethoxy-benzenesulfonyl)-piperazin-1-yl]-4-methyl-thiazole-5-carboxylic acid] | < 100 | < 100 |
| CCN(CC)c1ccc(CNC(=O)[C@H]2CN(c3nc(C)c(C(=O)O)s3)CCN2S(=O)(=O)c2ccc(OC(F)(F)F)cc2)cc1 [Example 425, 2-[(R)-3-(4-diethylamino-benzylcarbamoyl)-4-(4-trifluoromethoxy-benzenesulfonyl)-piperazin-1-yl]-4-methyl-thiazole-5-carboxylic acid] | < 100 | < 100 |
| CC(C)c1ccc(CNC(=O)[C@H]2CN(c3cc(C(=O)O)[nH]n3)CCN2S(=O)(=O)c2ccc(C(F)(F)F)cc2)cc1 [Example 426, 5-[(R)-3-(4-isopropyl-benzylcarbamoyl)-4-(4-trifluoromethyl-benzenesulfonyl)-piperazin-1-yl]-2H-pyrazole-3-carboxylic acid] | 100 to 1000 | > 1000 |
| CC(C)c1ccc(CNC(=O)[C@H]2CN(c3n[nH]c(C(=O)O)c3Cl)CCN2S(=O)(=O)c2ccc(C(F)(F)F)cc2)cc1 [Example 427, 4-chloro-5-[(R)-3-(4-isopropyl-benzylcarbamoyl)-4-(4-trifluoromethyl-benzenesulfonyl)-piperazin-1-yl]-2H-pyrazole-3-carboxylic acid] | > 1000 | > 1000 |
| CC(=O)N1CCN(S(=O)(=O)c2ccc(CC3CC3)cc2)[C@@H](C(=O)NCc2ccc(C(C)C)cc2)C1 [Example 428, (R)-4-acetyl-1-(4-cyclopropylmethyl-benzenesulfonyl)-piperazine-2-carboxylic acid 4-isopropyl-benzylamide] | < 100 | < 100 |
| CCCc1ccc(S(=O)(=O)N2CCN(C(C)=O)C[C@@H]2C(=O)NCc2ccc(C(C)C)cc2)c(F)c1 [Example 429, (R)-4-acetyl-1-(2-fluoro-4-propyl-benzenesulfonyl)-piperazine-2-carboxylic acid 4-isopropyl-benzylamide] | < 100 | < 100 |
| CC(=O)N1CCN(S(=O)(=O)c2ccc(Br)cc2)[C@@H](C(=O)NCc2ccc(C(C)C)cc2)C1 [Example 430, (R)-4-acetyl-1-(4-bromo-benzenesulfonyl)-piperazine-2-carboxylic acid 4-isopropyl-benzylamide] | 100 to 1000 | 100 to 1000 |
| COC(=O)c1cnc(N2CCN(S(=O)(=O)c3ccc(C(F)(F)F)cc3)[C@@H](C(=O)NCc3ccc(C(C)C)cc3)C2)c(C)n1 [Example 431, (R)-3-(4-isopropyl-benzylcarbamoyl)-3′-methyl-4-(4-trifluoromethyl-benzenesulfonyl)-3,4,5,6-tetrahydro-2H-[1,2′]bipyrazinyl-5′-carboxylic acid methyl ester] | 100 to 1000 | 100 to 1000 |
| CCCc1ccc(CNC(=O)[C@H]2CN(c3cnc(C(=O)O)cn3)CCN2S(=O)(=O)c2ccc(OC(F)(F)F)cc2)c(C)c1 [Example 432, (R)-3-(2-methyl-4-propyl-benzylcarbamoyl)-4-(4-trifluoromethoxy-benzenesulfonyl)-3,4,5,6-tetrahydro-2H-[1,2′]bipyrazinyl-5′-carboxylic acid] | < 100 | < 100 |
| CC(=O)N1CCN(S(=O)(=O)c2ccc(C(C)C)cc2)[C@@H](C(=O)NCCc2c[nH]cn2)C1 [Example 433, (R)-4-acetyl-1-(4-isopropyl-benzenesulfonyl)-piperazine-2-carboxylic acid [2-(1H-imidazol-4-yl)-ethyl]-amide hydrochloride] | > 1000 | > 1000 |
| CCCc1ccc(S(=O)(=O)N2CCN(c3nc(C(=O)O)c(C)s3)C[C@@H]2C(=O)NCc2ccc(C(C)C)cc2)cc1 [Example 434, 2-[(R)-3-(4-isopropyl-benzylcarbamoyl)-4-(4-propyl-benzenesulfonyl)-piperazin-1-yl]-5-methyl-thiazole-4-carboxylic acid] | < 100 | < 100 |
| CCCc1ccc(CNC(=O)[C@H]2CN(c3cnc(C(=O)O)cn3)CCN2S(=O)(=O)c2ccc3c(c2)CCCCC3)cc1 [Example 435, (R)-3-(4-propyl-benzylcarbamoyl)-4-(6,7,8,9-tetrahydro-5H-benzenecycloheptene-2-sulfonyl)-3,4,5,6-tetrahydro-2H-[1,2′]bipyrazinyl-5′-carboxylic acid] | < 100 | < 100 |
| CCCc1ccc(CNC(=O)[C@H]2CN(C(=O)Nc3ccncc3)CCN2S(=O)(=O)c2ccc(OC(F)(F)F)cc2)cc1 [Example 436, (R)-4-(4-trifluoromethoxy-benzenesulfonyl)-piperazine-1,3-dicarboxylic acid 3-(4-propyl-benzylamide) 1-pyridin-4-ylamide] | < 100 | < 100 |
| CCCc1ccc(CNC(=O)[C@H]2CN(C(=O)Nc3nncs3)CCN2S(=O)(=O)c2ccc(OC(F)(F)F)cc2)cc1 [Example 437, (R)-4-(4-trifluoromethoxy-benzenesulfonyl)-piperazine-1,3-dicarboxylic acid 3-(4-propyl-benzylamide) 1-[1,3,4]thiadiazol-2-ylamide] | < 100 | < 100 |
| CCCc1ccc(CNC(=O)[C@H]2CN(c3cnc(C(=O)O)cn3)CCN2S(=O)(=O)c2ccc(CCC)s2)cc1 [Example 438, (R)-3-(4-propyl-benzylcarbamoyl)-4-(5-propyl-thiophene-2-sulfonyl)-3,4,5,6-tetrahydro-2H-[1,2′]bipyrazinyl-5′-carboxylic acid] | < 100 | < 100 |
